Laboratory results published in US8299048B2, “Hexahydrocyclopentyl[f]indazole sulfonamides and derivatives thereof as selective glucocorticoid receptor modulators” (Merck Sharp & Dohme Corp., priority 2008, dated 2012).

Molecular target: T1, glucocorticoid receptor (Homo sapiens, UniProt P04150)
T1 construct: endogenous in cells
T1 sequence (P04150 1-777): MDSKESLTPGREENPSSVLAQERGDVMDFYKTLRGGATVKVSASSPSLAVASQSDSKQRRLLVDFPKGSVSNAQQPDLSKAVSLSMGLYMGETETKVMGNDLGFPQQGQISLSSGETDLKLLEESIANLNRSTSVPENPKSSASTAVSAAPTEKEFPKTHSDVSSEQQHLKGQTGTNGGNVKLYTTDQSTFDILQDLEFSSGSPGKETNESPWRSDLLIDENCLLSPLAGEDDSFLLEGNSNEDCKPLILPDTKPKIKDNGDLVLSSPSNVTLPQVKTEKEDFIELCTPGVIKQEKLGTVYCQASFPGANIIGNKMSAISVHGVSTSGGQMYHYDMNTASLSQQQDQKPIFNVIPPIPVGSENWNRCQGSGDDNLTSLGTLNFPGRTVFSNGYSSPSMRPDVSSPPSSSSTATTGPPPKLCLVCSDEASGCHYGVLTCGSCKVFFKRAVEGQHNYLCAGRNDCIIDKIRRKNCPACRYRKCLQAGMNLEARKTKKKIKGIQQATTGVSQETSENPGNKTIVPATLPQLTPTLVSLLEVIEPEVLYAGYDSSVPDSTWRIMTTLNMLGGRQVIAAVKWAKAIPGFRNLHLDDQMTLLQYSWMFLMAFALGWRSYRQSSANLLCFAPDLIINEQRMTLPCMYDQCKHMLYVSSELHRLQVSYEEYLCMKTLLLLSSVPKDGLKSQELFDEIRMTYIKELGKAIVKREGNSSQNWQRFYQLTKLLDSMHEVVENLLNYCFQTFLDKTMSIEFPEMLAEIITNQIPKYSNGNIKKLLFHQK
Assay: Ligand binding assay (GR BIND)
In short: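 Cytosol from freeze–thawed cells in TEGM (pH 7.2, 10 mM molybdate) was incubated overnight at 4 °C with compound and [3H]-dexamethasone trace (added as 6 nM solution), 2% EtOH final. Bound ligand was captured on hydroxylapatite, filtered, washed and scintillation counted. Values were calculated with dexamethasone as reference.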

Going from `C[C@]12Cc3cnn(-c4ccc(F)cc4)c3C=C1CC[C@@H]2CN(CC1CCCO1)S(=O)(=O)c1ccc(C(N)=O)cc1` (stereo partly drawn) [Example 191, 4-{[{[(4αR,5S)-1-(4-fluorophenyl)-4α-methyl-1,4,4α,5,6,7-hexahydrocyclopenta[f]indazol-5-yl]methyl}(tetrahydrofuran-2-ylmethyl)amino]sulfonyl}benzamide] to `C[C@]12Cc3cnn(-c4ccc(F)cc4)c3C=C1CC[C@@H]2CN(Cc1ccccc1F)S(=O)(=O)c1cccc(C(N)=O)c1` [Example 192, 3-[((2-fluorobenzyl){[(4αR,5S)-1-(4-fluorophenyl)-4α-methyl-1,4,4α,5,6,7-hexahydrocyclopenta[f]indazol-5-yl]methyl}amino)sulfonyl]benzamide], the Ki falls from 2 nM to 0.9 nM (2.2-fold). The second binds more tightly here.

Going from `C[C@]12Cc3cnn(-c4ccc(F)cc4)c3C=C1CC[C@@H]2CN(CCCc1ccccc1)S(=O)(=O)CC(F)(F)F` [Example 193, 2,2,2-trifluoro-N-{[(4αR,5S)-1-(4-fluorophenyl)-4α-methyl-1,4,4α,5,6,7-hexahydrocyclopenta[f]indazol-5-yl]methyl}-N-(3-phenylpropyl)ethanesulfonamide] to `C[C@]12Cc3cnn(-c4ccc(F)cc4)c3C=C1CC[C@@H]2CN(CCCc1ccccc1)S(=O)(=O)c1ccccc1F` [Example 195, 2-fluoro-N-{[(4αR,5S)-1-(4-fluorophenyl)-4α-methyl-1,4,4α,5,6,7-hexahydrocyclopenta[f]indazol-5-yl]methyl}-N-(3-phenylpropyl)benzenesulfonamide], the Ki falls from 1 nM to 0.6 nM (1.7-fold). The second binds more tightly here.

Going from `Cc1noc(C)c1S(=O)(=O)N(CCCc1ccccc1)C[C@H]1CCC2=Cc3c(cnn3-c3ccc(F)cc3)C[C@@]21C` [Example 194, N-{[(4αR,5S)-1-(4-fluorophenyl)-4α-methyl-1,4,4α,5,6,7-hexahydrocyclopenta[f]indazol-5-yl]methyl}-3,5-dimethyl-N-(3-phenylpropyl)isoxazole-4-sulfonamide] to `CC(C)(O)CN(C[C@H]1CCC2=Cc3c(cnn3-c3ccc(F)cc3)C[C@@]21C)S(=O)(=O)c1ccccc1F` [Example 199, 2-fluoro-N-{[(4αR,5S)-1-(4-fluorophenyl)-4α-methyl-1,4,4α,5,6,7-hexahydrocyclopenta[f]indazol-5-yl]methyl}-N-(2-hydroxy-2-methylpropyl)benzenesulfonamide], the Ki rises from 1.5 nM to 2.4 nM (1.6-fold). The first binds more tightly here.

Compared with `C[C@]12Cc3cnn(-c4ccc(F)cc4)c3C=C1CC[C@@H]2CN(CCc1ccccn1)S(=O)(=O)Cc1ccccc1C(N)=O` [Example 196, 2-({[{[(4αR,5S)-1-(4-fluorophenyl)-4α-methyl-1,4,4α,5,6,7-hexahydrocyclopenta[f]indazol-5-yl]methyl}(2-pyridin-2-ylethyl)amino]sulfonyl}methyl)benzamide], `C[C@]12Cc3cnn(-c4ccc(F)cc4)c3C=C1CC[C@@H]2CN(CCO)S(=O)(=O)Cc1ccccc1C(N)=O` [Example 198, 2-({[{[(4αR,5S)-1-(4-fluorophenyl)-4α-methyl-1,4,4α,5,6,7-hexahydrocyclopenta[f]indazol-5-yl]methyl}(2-hydroxyethyl)amino]sulfonyl}methyl)benzamide] is 5.3-fold higher in Ki: 2.7 nM for the first, 14.3 nM for the second.

Going from `CC([C@H]1CCC2=Cc3c(cnn3-c3ccc(F)cc3)C[C@@]21C)N(CCc1ccccn1)S(=O)(=O)Cc1cccnc1` (stereo partly drawn) [Example 197, N-{1-[(4αR)-1-(4-fluorophenyl)-4α-methyl-1,4,4α,5,6,7-hexahydrocyclopenta[f]indazol-5-yl]ethyl}-1-pyridin-3-yl-N-(2-pyridin-2-ylethyl)methanesulfonamide] to `C[C@]12Cc3cnn(-c4ccc(F)cc4)c3C=C1CC[C@@H]2CN(CC1(O)CC1)S(=O)(=O)c1ccccc1F` [Example 200, 2-fluoro-N-{[(4αR,5S)-1-(4-fluorophenyl)-4α-methyl-1,4,4α,5,6,7-hexahydrocyclopenta[f]indazol-5-yl]methyl}-N-[(1-hydroxycyclopropyl)methyl]benzenesulfonamide], the Ki falls from 4.4 nM to 1.8 nM (2.4-fold). The second binds more tightly here.

Work on `C[C@]12Cc3cnn(-c4ccc(F)cc4)c3C=C1CC[C@@H]2CN(CC1(O)CCCCC1)S(=O)(=O)c1ccccc1F` [Example 201, 2-fluoro-N-{[(4αR,5S)-1-(4-fluorophenyl)-4α-methyl-1,4,4α,5,6,7-hexahydrocyclopenta[f]indazol-5-yl]methyl}-N-[(1-hydroxycyclohexyl)methyl]benzenesulfonamide] yielded a Ki of 2.3 nM.
